Measured values published in patent US9422292B2, “Bromodomain inhibitors and uses thereof” (Constellation Pharmaceuticals, Inc., priority 2011, dated 2016).

Experiments:
[1] = test system: IL-6 secretion in THP-1 cells; assay: Cell-based IL-6 quantification assay (ELISA, Mesoscale) in LPS-treated THP-1 cells; settings: Homo sapiens, LPS 4 μg/mL, 16 h, ELISA value/CellTiter-Glo ratio
Protocol: C. Cell-Based IL-6 Quantification Assay (ELISA, Mesoscale Assay):
100,000 THP-1 cells were seeded in RPMI1640-10% FBS in 96-well plates. LPS (E. Coli Invitrogen) in RPMI−10% FBS at a final concentration of 4 μg/mL was added to the wells and the cells are then incubated in the presence of various concentrations of compounds for 16 h. Plates are spun ([…], 5 min), an aliquot of 25 uL supernatant is transferred in to an ELISA plate (Mesoscale technology, MSD) and the detection of IL-6 is performed using manufacturer's instructions. The amount of cells in each well is assessed using CellTiter-Glo® (Promega). The ratio of ELISA value/CellTiter-Glo value is used to calculate the percent of inhibition of IL-6 secretion.

[2] = test system: MYC mRNA in MV4:11 (AML) cells; assay: cMyc RNA quantification assay (QuantiGene) in MV4:11 cells; assay type: cell-based; settings: Homo sapiens, 4 h, QuantiGene 2.0
Protocol: B. cMyc RNA Quantification Assay (QuantiGene® Assay):
MV4:11 (AML) cells were seeded in a 96-well plate and incubated in the presence of various concentrations of compounds for 4 h. Relative mRNA levels were quantitated by using QuantiGene 2.0 assay (Affymetrix) according to the manufacturer's recommendation. Signals were detected by using an Envision plate reader (Perkin-Elmer). Biological duplicates were averaged and normalized to vehicle (DMSO) control to calculate percent MYC mRNA levels.

[3] = target: T1, BRD4 (BD1) (Homo sapiens, UniProt O60885); assay: BRD4 AlphaLisa binding assay; settings: BRD4 (BD1) 30 nM, biotinylated H4-tetraacetyl peptide 200 nM; read-out: BRD4 AlphaLisa
T1 construct: His; made in house
Protocol: A. IC50 Measurements for Inhibitors Using BRD4 AlphaLisa Binding Assay.
Specifically, in a 384 well ProxiPlate BRD4 (BD1) (30 nM final) was combined with peptide (200 nM final) in 40 mM HEPES (pH 7.0), 40 mM NaCl, 1 mM DTT, 0.01% (w/v) BSA, and 0.008% (w/v) Brij-35 either in the presence of DMSO (final 1.2% DMSO) or compound dilution series in DMSO. After 20 minute incubation at room temperature Alpha streptavidin donor beads and AlphaLisa anti-Flag acceptor beads were added to a final concentration of 10 ug/mL each. After three hours equilibration plates were read on an Envision instrument and IC50s calculated using a four parameter non-linear curve fit.

For `Cc1ccc(-c2ccc3c(c2)N(c2ccc(Cl)cc2)C[C@@H](C)c2nnc(C)n2-3)cn1` [Compound 29, (R)-4H-[1,2,4]triazolo[4,3-a][1,5]benzodiazepine, 5,6-dihydro-1,4-dimethyl-8-(6-methylpyridin-3-yl)-6-(4-chloro-phenyl)], the IC50 [1] was < 0.1 µM, the IC50 [2] was < 0.1 µM and the IC50 [3] was < 0.1 µM.

`Cc1nnc2n1-c1ccc(-c3ccc(N)nc3)cc1N(c1ccc(Cl)cc1)C[C@@H]2C` [Compound 27, (S)-4H-[1,2,4]triazolo[4,3-a][1,5]benzodiazepine, 5,6-dihydro-1,4-dimethyl-8-(6-aminopyridin-3-yl)-6-(4-chloro-phenyl)] gave an IC50 [1] of 0.1 to 1 µM, an IC50 [2] of 1 to 10 µM and an IC50 [3] of 0.1 to 1 µM.

For `Cc1nnc2n1-c1ccc(-c3ccc(N)nc3)cc1N(c1ccc(Cl)cc1)CC2` [Compound 15, 5-(6-(4-chlorophenyl)-1-methyl-5,6-dihydro-4H-benzo[b][1,2,4]triazolo[4,3-d][1,4]diazepin-8-yl)pyridin-2-amine], the IC50 [1] was < 0.1 µM, the IC50 [2] was 0.1 to 1 µM and the IC50 [3] was < 0.1 µM.

For `Cc1ncnn1-c1ccc2c(c1)N(c1ccc(Cl)cc1)C[C@@H](C)c1nnc(C)n1-2` [Compound 65, (R)-6-(4-chlorophenyl)-1,4-dimethyl-8-(5-methyl-1H-1,2,4-triazol-1-yl)-5,6-dihydro-4H-benzo[b][1,2,4]triazolo[4,3-d][1,4]diazepine], the IC50 [1] was 0.1 to 1 µM, the IC50 [2] was 1 to 10 µM and the IC50 [3] was 0.1 to 1 µM.

`Cc1nnc2n1-c1ccc(-c3cn[nH]c3)cc1N(c1ccc(C#N)cc1)C[C@H]2C` [Compound 80, (R)-4-(1,4-dimethyl-8-(1H-pyrazol-4-yl)-4H-benzo[b][1,2,4]triazolo[4,3-d][1,4]diazepin-6(5H)-yl)benzonitrile] was tested, and the IC50 [1] was < 0.1 µM, the IC50 [2] was < 0.1 µM and the IC50 [3] was < 0.1 µM.

For `Cc1nc(-c2ccc3c(c2)N(c2ccc(Cl)cc2)C[C@@H](C)c2nnc(C)n2-3)no1` [Compound 50, 4-R-4H-[1,2,4]triazolo[4,3-a][1,5]benzodiazepine, 5,6-dihydro-1,4-dimethyl-8-(5-methyl-1,2,4-oxadiazol-3-yl)-6-(4-chloro-phenyl)], the IC50 [1] was < 0.1 µM, the IC50 [2] was < 0.1 µM and the IC50 [3] was 0.1 to 1 µM.

For `Cc1nnc2n1-c1ccc(-c3cnn(C)n3)cc1N(c1ccc(S(C)(=O)=O)cc1)C[C@H]2C` [Compound 73, (S)-4H-[1,2,4]Triazolo[4,3-a][1,5]benzodiazepine, 5,6-dihydro-1,4-dimethyl-8-(2-methyl-2H-1,2,3-triazole-4-yl)-6-(4-methylsulfonyl-phenyl)], the IC50 [1] was 0.1 to 1 µM, the IC50 [2] was 0.1 to 1 µM and the IC50 [3] was < 0.1 µM.

`Cc1nnc2n1-c1ccc(Br)cc1N(c1ccc(Cl)cc1)C[C@H]2C` [Compound 38, (R)-4H-[1,2,4]triazolo[4,3-a][1,5]benzodiazepine,5,6-dihydro-1,4-dimethyl-8-bromo-6-(4-chloro-phenyl)] showed an IC50 [1] of 0.1 to 1 µM, an IC50 [2] of 0.1 to 1 µM and an IC50 [3] of 0.1 to 1 µM.

`Cc1nnc2n1-c1ccccc1N(c1ccc(Cl)cc1)C(C)C2` (stereo not drawn) [Compound 18, 6-(4-chlorophenyl)-1,5-dimethyl-5,6-dihydro-4H-benzo[b][1,2,4]triazolo[4,3-d][1,4]diazepine] was tested, and the IC50 [1] was > 1 µM, the IC50 [2] was 1 to 10 µM and the IC50 [3] was 0.1 to 1 µM.

In the case of `Cc1nnc2n1-c1ccc(-c3cnc(N)nc3)cc1N(c1ccc(Cl)cc1)CC2C` (stereo not drawn) [Compound 25], the IC50 [1] is reported as 0.1 to 1 µM, the IC50 [2] is reported as < 0.1 µM and the IC50 [3] is reported as < 0.1 µM.

With `Cc1c(-c2ccc3c(c2)N(c2ccc(Cl)cc2)C[C@@H](C)c2nnc(C)n2-3)cnn1C` [Compound 59, (R)-6-(4-chlorophenyl)-8-(1,5-dimethyl-1H-pyrazol-4-yl)-1,4-dimethyl-5,6-dihydro-4H-benzo[b][1,2,4]triazolo[4,3-d][1,4]diazepine] the IC50 [1] was < 0.1 µM, the IC50 [2] was < 0.1 µM and the IC50 [3] was < 0.1 µM.

In the case of `Cc1nnc2n1-c1ccc(C(N)=O)cc1N(c1ccc(Cl)cc1)C[C@H]2C` [Compound 41, 4-R-4H-[1,2,4]Triazolo[4,3-a][1,5]benzodiazepine,5,6-dihydro-1,4-dimethyl-8-carbamoyl-6-(4-chloro-phenyl)], the IC50 [1] is reported as 0.1 to 1 µM, the IC50 [2] is reported as < 0.1 µM and the IC50 [3] is reported as < 0.1 µM.

In the case of `Cc1nnc2n1-c1ccc(Br)cc1N(c1ccc(Cl)cc1)C[C@@H]2C` [Compound 37, (S)-4H-[1,2,4]triazolo[4,3-a][1,5]benzodiazepine, 5,6-dihydro-1,4-dimethyl-8-bromo-6-(4-chloro-phenyl)], the IC50 [1] is reported as > 1 µM, the IC50 [2] is reported as 1 to 10 µM and the IC50 [3] is reported as 1 to 10 µM.

In the case of `Cc1nnc2n1-c1ccccc1N(c1ccc(Cl)cc1)C(C)(C)C2` [Compound 22, 6-(4-chlorophenyl)-1,5,5-trimethyl-5,6-dihydro-4H-benzo[b][1,2,4]triazolo[4,3-d][1,4]diazepine], the IC50 [1] is reported as 1 to 10 µM, the IC50 [2] is reported as 0.1 to 1 µM and the IC50 [3] is reported as > 10 µM.

For `Cc1nnc2n1-c1ccc(-c3cnn(CC(N)=O)c3)cc1N(c1ccc(C#N)cc1)C[C@H]2C` [Compound 81, (R)-2-(4-(6-(4-cyanophenyl)-1,4-dimethyl-5,6-dihydro-4H-benzo[b][1,2,4]triazolo[4,3-d][1,4]diazepin-8-yl)-1H-pyrazol-1-yl)acetamide], the IC50 [1] was > 1 µM, the IC50 [2] was 1 to 10 µM and the IC50 [3] was < 0.1 µM.

For `Cc1nnc2n1-c1c(F)cccc1N(c1ccc(Cl)cc1)CC2` [Compound 17, 6-(4-chlorophenyl)−10-fluoro-1-methyl-5,6-dihydro-4H-benzo[b][1,2,4]triazolo[4,3-d][1,4]diazepine], the IC50 [1] was > 1 µM, the IC50 [2] was 1 to 10 µM and the IC50 [3] was 1 to 10 µM.

In the case of `Cc1nnc2n1-c1ccc(-c3cnc(N)nc3)cc1N(c1ccc(Cl)cc1)C[C@H]2C` [Compound 39, (R)-4H-[1,2,4]triazolo[4,3-a][1,5]benzodiazepine,5,6-dihydro-1,4-dimethyl-8-(2-aminopyrimidin-5-yl)-6-(4-chloro-phenyl)], the IC50 [1] is reported as < 0.1 µM, the IC50 [2] is reported as < 0.1 µM and the IC50 [3] is reported as < 0.1 µM.

`Cc1nnc2n1-c1ccc(-c3cnc(N)cn3)cc1N(c1ccc(Cl)cc1)C[C@H]2C` [Compound 55, 4-R-4H-[1,2,4]triazolo[4,3-a][1,5]benzodiazepine,5,6-dihydro-1,4-dimethyl-8-(5-aminopyrazin-2-yl)-6-(4-chloro-phenyl)] was tested, and the IC50 [1] was < 0.1 µM, the IC50 [2] was < 0.1 µM and the IC50 [3] was < 0.1 µM.

In the case of `Cc1nnc2n1-c1ccc(-c3cnc(N)cn3)cc1N(c1ccc(C#N)cc1)C[C@@H]2C` [Compound 63], the IC50 [1] is reported as > 1 µM, the IC50 [2] is reported as 1 to 10 µM and the IC50 [3] is reported as 0.1 to 1 µM.

For `Cc1nnc2n1-c1ccc(-c3ccc(N)nc3)cc1N(c1ccc(C(F)(F)F)cc1)CC2` [Compound 19, 4H-[1,2,4]triazolo[4,3-a][1,5]benzodiazepine,5,6-dihydro-1-methyl-8-(6-amino-pyridin-3-yl)-6-(4-trifluoromethyl-phenyl)], the IC50 [1] was < 0.1 µM, the IC50 [2] was 0.1 to 1 µM and the IC50 [3] was < 0.1 µM.

In the case of `Cc1nnc2n1-c1ccc(-c3cnc(N)cn3)cc1N(c1ccc(Cl)cn1)C[C@H]2C` [Compound 83, (R)-5-(6-(5-chloropyridin-2-yl)-1,4-dimethyl-5,6-dihydro-4H-benzo[b][1,2,4]triazolo[4,3-d][1,4]diazepin-8-yl)pyrazin-2-amine], the IC50 [1] is reported as < 0.1 µM, the IC50 [2] is reported as < 0.1 µM and the IC50 [3] is reported as < 0.1 µM.

For `Cc1nnc2n1-c1ccc(-c3ccc(=O)[nH]c3)cc1N(c1ccc(Cl)cc1)C[C@H]2C` [Compound 61, (R)-5-(6-(4-chlorophenyl)-1,4-dimethyl-5,6-dihydro-4H-benzo[b][1,2,4]triazolo[4,3-d][1,4]diazepin-8-yl)pyridin-2(1H)-one], the IC50 [1] was < 0.1 µM, the IC50 [2] was < 0.1 µM and the IC50 [3] was < 0.1 µM.

`Cc1nnc2n1-c1ccc(-c3cnn(C)c3)cc1N(c1ccc(C#N)cn1)C[C@@H]2C` [Compound 58, (S)-4H-[1,2,4]triazolo[4,3-a][1,5]benzodiazepine, 5,6-dihydro-1,4-dimethyl-8-(1-methyl-1H-pyrazol-4-yl)-6-(5-cyanopyridin-2-yl)] was tested, and the IC50 [1] was 1 to 10 µM, the IC50 [2] was 1 to 10 µM and the IC50 [3] was 1 to 10 µM.

For `Cc1nnc2n1-c1ccc(-c3ncccn3)cc1N(c1ccc(Cl)cc1)CC2` [Compound 21, 6-(4-chlorophenyl)-1-methyl-8-(pyrimidin-2-yl)-5,6-dihydro-4H-benzo[b][1,2,4]triazolo[4,3-d][1,4]diazepine], the IC50 [1] was 0.1 to 1 µM, the IC50 [2] was 1 to 10 µM and the IC50 [3] was 0.1 to 1 µM.

With `Cc1noc(-c2ccc3c(c2)N(c2ccc(Cl)cc2)C[C@@H](C)c2nnc(C)n2-3)n1` [Compound 51, 4-R-4H-[1,2,4]triazolo[4,3-a][1,5]benzodiazepine,5,6-dihydro-1,4-dimethyl-8-(3-methyl-1,2,4-oxadiazol-5-yl)-6-(4-chloro-phenyl)] the IC50 [1] was < 0.1 µM, the IC50 [2] was < 0.1 µM and the IC50 [3] was 0.1 to 1 µM.
